PubChem BioAssay AID1919004 (Molecular Pharmacology Branch, DTP, NCI, 2023)
pIC50: −log10 of the molar value. “And” between values parts separate entries of the source, which are not always exact repeats. Identical values can stand only once.

Test system: 883617-216-R-J1-PDC complex spheroids, growth, % test/control
Assay: Anticancer human tumor 883617-216-R-J1-PDC patient-derived bladder carcinoma cell line growth inhibition [AhR]
Details: for viability, T/C: stronger effect = lower value
Text: Multicellular complex tumor spheroid response to aryl hydrocarbon receptor antagonists in combination with a variety of drugs and investigational agents in selected tumor cell lines
The current study was undertaken to assess response to aryl hydrocarbon receptor antagonists in combination with standard-of-care drugs and investigational agents in solid tumor complex spheroid models. Complex spheroids include a stromal component modeled by human endothelial cells (HUVEC) and fibroblasts modeled by human mesenchymal stem cells (MSCs). The concentration ranges selected for each drug and investigational agent were based upon clinically achievable concentrations if the clinical Cmax of the agent was known.
Compounds. The drugs and investigational agents: BAY 2416964 (NSC825713), GNF351 (NSC835774), CH-223191 (NSC835775), CPI-455 (NSC825282), aza-TdCyd (NSC777586), decitabine (NSC127716), belinostat (NSC758774), entinostat (NSC756642), pevonedistat (NSC761192), tazemetostat (NSC777109), talazoparib (NSC765396), olaparib (NSC753686), selinexor (NSC780203), nedisertib (M3814, NSC802822), bortezomib (NSC756655), venetoclax (NSC766270), doxorubicin (NSC123127), elimusertib (BAY189344, NSC800525), ceralasertib (AZD6738, NSC777638), TAK-243 (NSC785004), alisertib (NSC759677), etoposide (NSC141540), topotecan (NSC609699), eribulin (NSC707389), gemcitabine (NSC613327), carboplatin (NSC241240), cisplatin (NSC119875), and SN-38 (NSC673596) were obtained from the National Cancer Institute (NCI) Developmental Therapeutics Program Chemical Repository (32). The FDA-approved anticancer drug set is available from the Developmental Therapeutics Program at https://dtp.cancer.gov/organization/dscb/obtaining/available plates.htm. […] The stock solutions were prepared in dimethyl sulfoxide (DMSO, Sigma-Aldrich, St. Louis, MO, cat. D2650), except for the platinum compounds which were prepared in saline (Quality Biological, Gaithersburg, MD, cat. 114-055-101), at 800-fold the tested concentration and stored at -70 degrees C prior to their use. All drugs and investigational agents were tested over a range starting from a high concentration at or near the clinical Cmax and decreasing in half-log increments. If the clinical Cmax for an agent had not been determined, the highest concentration tested was 10 microM (Table 1).
Cell Culture. All cells were maintained in an incubator at 37 degrees C and 5% CO2 with 95% humidity. The PDC lines were cultured according to standard operating procedures established by the NCI PDMR (https://pdmr.cancer.gov). Briefly, all PDCs were thawed and cultured in Matrigel-coated flasks prepared with a working solution of 1X Ham's F-12 nutrient mix, without supplementation (Invitrogen, Waltham, MA, cat. 11765054), 100 U/mL penicillin-streptomycin (Invitrogen, cat. 15140122), and 2.5% Matrigel (Corning Inc., Corning, NY, cat. 354248) for the first three passages. All PDCs were cultured in complete DMEM/F-12 media containing advanced DMEM/F-12 (Invitrogen, cat. 12634028), 4.9% defined fetal bovine serum, heat inactivated (HyClone Laboratories Inc., Logan, UT, cat. SH30070.03HI), 389 ng/mL hydrocortisone (Sigma-Aldrich, cat. H4001), 9.7 ng/mL human EGF recombinant protein (Invitrogen, cat. PHG0313), 23.4 microg/mL adenine (Sigma-Aldrich, cat. A2786), 97.3 U/mL penicillin-streptomycin (Invitrogen, cat. 15140122), 1.9 mM L-glutamine (Invitrogen, cat. 25030081), and 9.7 microM Y-27632 dihydrochloride (Tocris Bioscience, Bristol, United Kingdom, cat. 1254). The PDCs were cultured in complete DMEM/F12 media without 10 microM Y-27632 dihydrochloride for at least two passages prior to the screen. The established cell lines NCI-H1341 and […] were cultured in DMEM/F-12, HEPES (Invitrogen, cat. 11330032), 5% defined fetal bovine serum (HyClone Laboratories Inc., cat. SH30070.03), ITS premix universal culture supplement [insulin (5 microg/mL), transferrin (5 microg/mL), and selenious acid (5 ng/mL)] […]
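Further: exposure lasted 7 days after dosing on day 3 of spheroid growth.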

Row | Structure (SMILES) | viability, T/C (compound 0.0316 µM) | viability, T/C (compound 0.1 µM) | viability, T/C (compound 0.316 µM) | viability, T/C (compound 1 µM) | viability, T/C (compound 3.16 µM) | viability, T/C (compound 10 µM) | pIC50 (curve of compound) | also measured
1 | COc1cccc2c1C(=O)c1c(O)c3c(c(O)c1C2=O)CC(O)(C(=O)CO)CC3OC1CC(N)C(O)C(C)O1 (stereo not drawn) | 70.3% and 65.3% and 99.7% | 65.2% and 60.5% and 54.1% | 60.8% and 58.8% and 62.2% | 22.4% and 23% and 6.26% | 0.22% and 0.36% and 3.97% | 0.22% and 0.16% and 3.6% | 6.36 and 6.38 and 6.68 | –
2 | Cc1ccccc1N=Nc1ccc(NC(=O)c2ccnn2C)c(C)c1 | – | 90.3% [middle of 20 runs] | 84.6% [middle of 20 runs] | 84.5% [middle of 19 runs] | 77% [middle of 20 runs] | 77% [middle of 21 runs] | – | pIC50 (compound alone, run of 06/14/2022): < 5.00
3 | Cc1cncc(-c2nc(NCCc3c[nH]c4ccccc34)c3ncn(C(C)C)c3n2)c1 | – | 88.2% [middle of 19 runs] | – | 95.8% [middle of 20 runs] | – | 51.4% [middle of 21 runs] | – | –
4 | Cn1ncnc1C1c2n[nH]c(=O)c3cc(F)cc(c23)NC1c1ccc(F)cc1 (stereo not drawn) | 82.2% and 83.4% and 63.1% | 75.4% and 77% and 89.1% | – | – | – | – | < 7.00 | viability, T/C (compound 0.000316 µM): 105% (2×) and 85.5%; viability, T/C (compound 0.001 µM): 111% and 107% and 106%; viability, T/C (compound 0.00316 µM): 103% and 101% and 76.3%; viability, T/C (compound 0.01 µM): 97.2% and 91.8% and 87.1%
5 | NS(=O)(=O)OCC1CC(n2ccc3c(NC4CCc5ccccc54)ncnc32)CC1O (stereo not drawn) | 154% and 163% and 90.4% | 209% and 200% and 81.5% | 214% and 242% and 83.6% | 140% and 130% and 64% | 48.6% and 34.8% and 33.6% | 24.7% and 20.3% and 48.3% | 5.51 and 5.61 and 5.70 | –
6 | Nc1ccccc1NC(=O)c1ccc(CNC(=O)OCc2cccnc2)cc1 | 96.9% and 100% and 89.9% | 102% and 111% and 88.5% | 86.1% and 82.7% and 81.7% | 52.8% and 62.3% and 78.8% | 20% and 24.2% and 63.7% | 0.83% and 1.59% and 18.8% | 5.94 and 5.86 and 5.36 | –
7 | Nc1ccn(C2OC(CO)C(O)C2(F)F)c(=O)n1 (stereo not drawn) | 28.9% and 105% and 26.2% | 28.2% and 135% and 27.1% | 32% and 64% and 25.9% | 37% and 80.2% and 30.9% | 40.3% and 118% and 35.9% | 37.1% and 79.3% and 35.7% | – | –
8 | Nc1ncn(C2CC(O)C(CO)O2)c(=O)n1 (stereo not drawn) | 94.7% and 90.6% and 73.1% | 89.7% and 97% and 93.9% | 85.9% and 82.2% and 113% | 76.2% and 75.2% and 94.4% | – | – | < 6.00 | viability, T/C (compound 0.00316 µM): 88.2% and 94.6% and 84.1%; viability, T/C (compound 0.01 µM): 93.2% and 102% and 118%
9 | Nc1ncn(C2CC(O)C(CO)S2)c(=O)n1 (stereo not drawn) | – | – | – | – | – | – | < 6.52 | viability, T/C (compound 0.000949 µM): 101% and 103% and 61.3%; viability, T/C (compound 0.003 µM): 114% and 103% and 79.2%; viability, T/C (compound 0.00949 µM): 93.2% and 103% and 71.2%; viability, T/C (compound 0.03 µM): 97.5% and 101% and 64%; viability, T/C (compound 0.0949 µM): 88.2% and 99% and 72.8%; viability, T/C (compound 0.3 µM): 78.9% and 82.5% and 87.1%
10 | O=C(C=Cc1cccc(S(=O)(=O)Nc2ccccc2)c1)NO | 107% and 95.8% and 72.5% | 112% and 96.7% and 77.7% | 92.8% and 76% and 74.6% | 68.9% and 73.4% and 93.9% | 40.8% (2×) and 35.7% | 2.89% and 2.67% and 2.49% | 5.67 and 5.65 and 5.66 | –
11 | O=C(C=Cn1cnc(-c2cc(C(F)(F)F)cc(C(F)(F)F)c2)n1)NNc1cnccn1 | – | – | – | – | – | – | 6.26 and 6.41 and 6.10 | viability, T/C (compound 0.00949 µM): 89.8% and 81.2% and 74.5%; viability, T/C (compound 0.03 µM): 88.8% and 78.5% and 89%; viability, T/C (compound 0.0949 µM): 67.4% and 63% and 65.5%; viability, T/C (compound 0.3 µM): 56.7% and 51.7% and 68.9%; viability, T/C (compound 0.949 µM): 45.9% and 42.6% and 45.6%; viability, T/C (compound 3 µM): 28.2% and 30.1% and 35.2%
12 | O=C(c1cc(Cc2n[nH]c(=O)c3ccccc23)ccc1F)N1CCN(C(=O)C2CC2)CC1 | 101% and 100% and 93% | 89.1% and 106% and 100% | 95.9% and 94.9% and 112% | 85.9% and 97.1% and 102% | 88% and 93.1% and 105% | 70.5% and 76.4% and 105% | < 5.00 | –
